The target in experiment [1] is T1, NIS (Rattus norvegicus, UniProt Q63008).
T1 construct: expressed in transfected cells; host or cells: SiHa human epithelial tumor cells (ATCC HTB-35) infected with Ad-NIS at a multiplicity of infection of 10
T1 sequence (Q63008 1-618): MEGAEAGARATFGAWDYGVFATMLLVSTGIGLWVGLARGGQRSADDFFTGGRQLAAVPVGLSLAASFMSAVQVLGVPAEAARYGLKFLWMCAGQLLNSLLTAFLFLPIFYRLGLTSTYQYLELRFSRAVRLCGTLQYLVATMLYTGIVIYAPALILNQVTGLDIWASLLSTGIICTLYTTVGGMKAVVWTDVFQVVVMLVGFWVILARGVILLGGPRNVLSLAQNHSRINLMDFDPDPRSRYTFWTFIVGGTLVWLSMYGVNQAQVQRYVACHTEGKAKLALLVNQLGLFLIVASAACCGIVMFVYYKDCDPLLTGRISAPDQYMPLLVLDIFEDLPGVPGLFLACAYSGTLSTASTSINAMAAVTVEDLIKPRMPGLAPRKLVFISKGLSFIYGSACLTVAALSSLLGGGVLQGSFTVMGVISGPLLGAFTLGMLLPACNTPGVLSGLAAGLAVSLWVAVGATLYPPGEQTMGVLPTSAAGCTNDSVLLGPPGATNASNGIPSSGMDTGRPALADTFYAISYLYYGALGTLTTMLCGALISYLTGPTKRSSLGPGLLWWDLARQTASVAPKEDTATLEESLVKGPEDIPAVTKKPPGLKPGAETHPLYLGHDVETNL
In words: Inhibition by perchlorate of iodine transport by NIS in FRTL-5 cells. The class given is cell-based. The method, then: (§1) The cells are infected with the Ad-NIS vector at a multiplicity of infection of 10. The capacity of the cells to capture iodine is tested 28 to 29 h after infection according to the Weiss et al. method [Endocrinology (1984) 114: 1090-1098]. The infected cells are washed with HBSS buffer and placed in contact for the time indicated in FIG. 3 with 0.5 ml of HBSS buffer containing 0.1 μCi of iodine-125. At the end of the contact time, the cells are washed once with cold HBSS buffer and then incubated for 20 min with cold ethanol. The quantity of iodine-125 captured by the cells is determined by assaying the radioactivity of the ethanol, with a gamma counter.
(§2) The specific inhibition of iodine transport by NIS was tested in the presence of perchlorate. NaCIO4 was added to the HBSS buffer containing iodine-125 so as to obtain final concentrations of 30, 300 and 3000 μM. The contact time between the cells and the iodine-125 is 15 minutes. The results are expressed as number of counts for the same number of cells.

The target of experiment [2] is T1, NIS. As to the kind of experiment: Inhibition by perchlorate of iodine transport by NIS in SiHa cells infected with Ad-NIS. The class given is cell-based. The method, then:
as §1, §2

These results are taken from patent US8642028B2, “Recombinant adenoviruses encoding the specific iodine transporter (NIS)” (Aventis Pharma S.A., priority 1999, dated 2014).

Turning to `[O-][Cl+3]([O-])([O-])O` [NaCIO4], the inhibition at 30 µM on NIS [1] (FRTL-5, FRTL-5 cells, 30 μM NaCIO4, 15 min contact with iodine-125, read-out: inhibition of the fixing of iodine) was more than 90%; on NIS [2] (SiHa cells infected with Ad-NIS, 30 μM NaCIO4, 15 min contact, read-out: inhibition of the fixing of iodine) it was 40%. For the same compound, the “inhibition of the fixing of iodine” value at NIS [1] (FRTL-5 cells, high NaCIO4 concentrations, 15 min contact with iodine-125) worked out at 95%. Also, the “inhibitor concentration required for the same level of inhibition, SiHa cells relative to FRTL-5 cells” value on NIS [2] (SiHa cells infected with Ad-NIS versus FRTL-5 cells) turned out to be 10 times. Further, the inhibition at 300 µM at NIS [2] (SiHa cells infected with Ad-NIS, 300 μM NaCIO4, 15 min contact, read-out: inhibition of the fixing of iodine) was found to be 92%. Also, the inhibition at 3000 µM on NIS [2] (SiHa cells infected with Ad-NIS, 3 mM NaCIO4, 15 min contact, read-out: inhibition of the fixing of iodine) is 98%.
